Here are results for 12 compounds from patent US20240239775A1, “FXR REGULATOR, PREPARATION METHOD THEREFOR, PHARMACEUTICAL COMPOSITION THEREOF AND USE THEREOF” (QINGDAO RUIJI MEDICAL TECHNOLOGY CO., LTD., priority 2021, published 2024).

One experiment has as its target T1, FXR (Homo sapiens, UniProt Q96RI1).
T1 construct: 5 μL of 20 nM FXR-LBD Complete Coregulator buffer G; purchased ThermoFisher PV4833
T1 sequence (Q96RI1 262-486 limits assumed): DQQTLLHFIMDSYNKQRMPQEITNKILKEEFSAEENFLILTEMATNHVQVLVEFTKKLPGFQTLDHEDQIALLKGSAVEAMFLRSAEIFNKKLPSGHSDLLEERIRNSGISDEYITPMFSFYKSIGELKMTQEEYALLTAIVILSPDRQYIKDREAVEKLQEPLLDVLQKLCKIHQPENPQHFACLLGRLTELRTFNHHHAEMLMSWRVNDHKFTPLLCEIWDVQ
Kind of experiment: FXR antagonist screening by TR-FRET (LanthaScreen TR-FRET FXR co-activation assay kit). Type of experiment: biochemical. The conditions noted are these: Table 1.1, FXR antagonistic activity; TR-FRET with CDCA; geometric means of at least two independent runs. The protocol: FXR activity was evaluated by time-resolved fluorescence resonance energy transfer (TR-FRET) assay, using LanthaScreen™ TR-FRET FXR co-activation assay kit (ThermoFisher, Cat. PV4833). For agonist screening, 10 μL of Complete Coregulator buffer G containing the corresponding concentration of the compound to be tested, 5 μL of 20 nM FXR-LBD Complete Coregulator buffer G, and 5 μL of 2.0 μM Fluorescein-SRC2-2/20 nM Tb-anti-GST antibody Complete Coregulator buffer G were added to each well of a 384-well black plate (Coring) in sequence. […] Three duplicate wells were set up for each compound, with CDCA as the positive compound and DMSO as the solvent control. For antagonist screening, 5 μL of Complete Coregulator buffer G containing the corresponding concentration of the compound to be tested, 5 μL of 20 nM FXR-LBD Complete Coregulator buffer G, 5 μL of 200 μM CDCA FXR-LBD Complete Coregulator buffer G, and 5 μL of 2.0 μM Fluorescein-SRC2-2/20 nM Tb-anti-GST antibody Complete Coregulator buffer G were added to each well of a 384-well black plate (Coring) in sequence and incubated at room temperature for 10 h. Following operations were the same as those for agonist screening
As a reminder, the IC50 is the midpoint of a concentration-inhibition curve. A low value points to inhibition by little substance. The compound `CCOC(=O)c1oc2ccc(S(=O)(=O)N(CCc3ccccc3)c3ccc(N4CCN(S(C)(=O)=O)CC4)cc3)cc2c1C` [Example M8-72, ethyl 3-methyl-5-(N-(4-(4-(methylsulfonyl)piperazin-1-yl)phenyl)-N-phenethylsulfamoyl)benzofuran-2-carboxylate] came in with an IC50 of 50 to 100 µM.

Compound `CCOC(=O)c1oc2ccc(S(=O)(=O)N(CCc3ccccc3)Cc3ccccc3N3CCNCC3)cc2c1C` [Example M9-2, ethyl 3-methyl-5-(N-phenethyl-N-(2-(piperazin-1-yl)benzyl)sulfamoyl)benzofuran-2-carboxylate] gave an IC50 of 50 to 100 µM.

As for `CCOC(=O)c1oc2ccc(S(=O)(=O)N(CCc3ccccc3)Cc3ccc(C(F)(F)F)cc3)cc2c1C` [Example M4-32, ethyl 3-methyl-5-(N-(4-trifluoromethylbenzyl)-N-phenethylsulfamoyl)benzofuran-2-carboxylate], the IC50 lay in the range of 50 to 100 µM.

The compound `CCOC(=O)c1oc2ccc(S(=O)(=O)N(CCc3ccccc3)Cc3ccccc3Cl)cc2c1C` [Example M4-15, ethyl 3-methyl-5-(N-(2-chlorobenzyl)-N-phenethylsulfamoyl)benzofuran-2-carboxylate] yielded an IC50 of 50 to 100 µM.

In the case of `CCOC(=O)c1oc2ccc(S(=O)(=O)N(CCc3ccccc3)Cc3ccc(SC(F)(F)F)cc3)cc2c1C` [Example M4-35, ethyl 3-methyl-5-(N-(4-(trifluoromethylthio)benzyl)-N-phenethylsulfamoyl)benzofuran-2-carboxylate], the IC50 is 50 to 100 µM.

In turn, `CCOC(=O)c1oc2ccc(S(=O)(=O)N(CCc3ccccc3)Cc3ccc(/C=C/C(=O)OC)cc3)cc2c1C` [Example M4-42, (E)ethyl-3-methyl-5-(N-(4-(3-methoxy-3-oxoprop-1-en-1-yl)benzyl)-N-phenethylsulfamoyl)benzofuran-2-carboxylate] showed an IC50 of 50 to 100 µM.

The compound `CCOC(=O)c1oc2ccc(S(=O)(=O)N(CCc3ccccc3)c3ccc(N4CCN(C(=O)OC(C)(C)C)CC4)c(C(F)(F)F)c3)cc2c1C` [Example M8-74, ethyl 3-methyl-5-(N-(4-(4-(tert-butoxycarbonyl)piperazin-1-yl)-3-(trifluoromethyl)phenyl)-N-phenethylsulfamoyl)benzofuran-2-carboxylate] came in with an IC50 of 50 to 100 µM.

`CCOC(=O)c1oc2ccc(S(=O)(=O)N(CCc3ccccc3)c3ccc(Oc4ccccc4)cc3)cc2c1C` [Example M8-12, ethyl 3-methyl-5-(N-(4-phenoxyphenyl)-N-phenethylsulfamoyl)benzofuran-2-carboxylate] gave an IC50 of 50 to 100 µM.

As for `CCOC(=O)c1oc2ccc(S(=O)(=O)N(CCc3ccccc3)Cc3ccc(C(C)C)cc3)cc2c1C` [Example M4-36, ethyl 3-methyl-5-(N-(4-isopropylbenzyl)-N-phenethylsulfamoyl)benzofuran-2-carboxylate], the IC50 fell in the range of 50 to 100 µM.

The experiment is the same for the next values; noted with them: Table 1.2, FXR antagonistic activity; TR-FRET with CDCA; geometric means of at least two independent runs.
The compound `Cc1c(C(=O)O)oc2ccc(S(=O)(=O)N(CCc3ccccc3)c3ccccc3N3CCN(C(=O)c4ccco4)CC3)cc12` [Example F27-S121, 5-(N-(2-(4-(furan-2-carbonyl)piperazin-1-yl)phenyl)-N-phenethylsulfamoyl)-3-methylbenzofuran-2-carboxylic acid] came in with an IC50 of 0.1 to 10 µM.

Compound `Cc1c(C(=O)O)oc2ccc(S(=O)(=O)N(CCc3ccccc3)c3ccccc3N3CCN(C(=O)c4ccc(C(F)(F)F)cc4)CC3)cc12` [Example F27-S110, 3-methyl-5-(N-phenethyl-N-(2-(4-(4-(trifluoromethyl)benzoyl)piperazin-1-yl)phenyl)sulfamoyl)benzofuran-2-carboxylic acid] returned an IC50 of 0.1 to 10 µM.

`Cc1c(C(=O)O)oc2ccc(S(=O)(=O)N(CCc3ccccc3)c3ccccc3N3CCN(C(=O)c4cccs4)CC3)cc12` [Example F27-S118, 3-methyl-5-(N-phenethyl-N-(2-(4-(thiophene-2-carbonyl)piperazin-1-yl)phenyl)sulfamoyl)benzofuran-2-carboxylic acid] registered an IC50 of 0.1 to 10 µM.
